Test results published in US10463709B2, “Short synthetic peptide for treating diseases and/or conditions related to angiogenesis” (MacKay Memorial Hospital, priority 2015, dated 2019).
Entries after “also recorded” stand apart in the source; their conditions may differ. Square brackets hold non-standard residues; d marks the D form. Ends that are not written are not given here.

Columns and labels:
RPMI8226 cells = assay: MTT assay, VEGF-induced proliferation of RPMI8226 cells; format: cell-based
Protocol: The multiple myeloma line RPMI8226 was cultivated in complex medium (RPMI1640) supplemented with 10% (vol/vol) heat-inactivated fetal calf serum (Invitrogen), 50 μg/mL penicillin, 50 μg/mL streptomycin, and 2 mM L-glutamine at 37° C. in a 5% CO2 atmosphere. RPMI8226 cells were cultured in serum-free RPMI1640 medium for 24 hrs, and then cells were seeded in 48-well culture plates (3×10^5 cells/well) and continued to culture in 0.5 ml fresh serum-free RPMI1640 medium containing 25 μM peptide for another 24 hrs. The cell viability was determined by the MTT assay. Briefly, 50 μL of MTT stock solution (50 μL) (5 mg MTT dissolved in 1 ml of sterile PBS) was added to each culture well. In addition, 50 μL of the MTT stock solution was added in 500 μL of medium as the negative control. The culture plate was incubated at 37° C. for 4 hours. Aliquots (450 μl) from each sample were taken to a new well of 48-well culture plate, adding 100 μL DMSO, mixing thoroughly using the pipette and reacted at 37° C. for 20 min and read absorbance at 570 nm. These synthesized peptides were then subject to MTT assay, in which vascular endothelial growth factor (VEGF) was used as a stimulant to induce cell proliferation. Results are depicted in FIGS. 1 to 4.

HUVECs [1] = assay: VEGF-induced HUVEC proliferation assay; format: cell-based; conditions: VEGF (10 ng/mL) + 25 μM peptide; vs untreated HUVECs
Protocol: HUVECs (1×10^5 cells per well of 6-well plate) were grown in Medium 200 with Low Serum Growth Supplement (LSGS Kit, supplement contains 1.9% FBS, 3 ng/ml bFGF, 10 μg/ml heparin, 1 μg/ml hydrocortisone, and 10 ng/ml EGF). Culture plates were coated with 2% gelatin. Cells (passages 4-8) were cultured at 37° C. in a humidified atmosphere of 5% CO2. […]
HUVECs (1×10^5 cells per well of 6-well plate) in Medium 200 supplemented with LSGS Kit were allowed to grow onto 6-well plates coated with 2% gelatin for 24 hours at 37° C. in 5% CO2. The culture medium was then replaced with serum free Medium 200 overnight. […] Then, cells were harvested by trypsin-EDTA and counted using a hemocytometer.

[2] = tested on: rat model of laser-induced wet AMD; assay: Laser-induced wet AMD, rat model; format: in vivo; conditions: fluorescein angiography day 14; vs PBS vehicle
Text: Further, the effect of 7-mer or 7-mer DD on rat model of laser-induced wet AMD was also investigated. Fluorescein angiography images were obtained on day 14 after laser burn, and the images were subsequently scored. Results are depicted in FIG. 14.

HUVECs [3] = assay: Endothelial cell capillary-like tube formation assay; format: cell-based; conditions: VEGF (10 ng/mL) + 25 μM peptide; vs untreated HUVECs
Protocol: To examine the effect of the present synthetic peptide on in vitro angiogenesis, growth factor-reduced matrigel was pipetted into pre-chilled 24-well plates (150 μl matrigel per well) and polymerized for 45 min at 37° C. […] In this experiment, images were captured using a Cannon camera on Zeiss inverted microscope with magnification ×40 and tube length was quantified using Image analysis software (Image-Pro Plus). The control peptide as used in the present invention has the sequence of DLYRVR (SEQ ID NO: 10).

B16-F10 melanoma cells = assay: Experimental pulmonary metastasis in mice; format: in vivo, C57BL/6 mice; conditions: for effect on number of colonies on the surface of the lung / in vivo metastasis / No. lung colonies: 10 mg/Kg intraperitoneal every 2 days; for No. lung colonies: day 8, n = 5; for Inhibition (%): lung colonies vs vehicle, 10 mg/Kg
Protocol: 2×10^5 B16-F10 cells were suspended in 100 μl PBS and checked for viability using trypan blue staining (>95%). The B16-F10 cells were then injected into the tail vein of the 6-week-old female C57BL/6 mice; while vehicle (DMSO), the present synthetic peptide or the control peptide (10 mg/kg) were administered by intraperitoneal injections every 2 days after the B16-F10 cell injection. Five mice were used for each group. On day 8 after inoculation of cells, the lungs were removed, and the number of visible colonies on the surface of the lungs were counted using a dissecting microscope.
Metastasis is the foremost cause of death from cancer. In this example, to investigate the efficacy of the present synthetic peptide on the metastasis of cancer cells, B16-F10 cells were injected into the tail vein of a mouse, the animal was then treated with the present synthetic peptide (7-mer or 7-mer DD, 10 mg/Kg) by intraperitoneal injections every 2 days. Upon completion of the experiment, the lungs were then removed and the tumor colonies visible to the eyes were then counted. Results are depicted in FIG. 10.

rat aortic ring = assay: Rat aortic ring assay (ex vivo microvessel sprouting); parameters: species or system Sprague Dawley rats; conditions: beta-FGF induced; peptide 50 μM
Protocol: Thoracic aortas were removed from euthanized 10-week-old male Sprague Dawley rats, and gently stripped off periaortic fibroadipose tissue. Aortas were sectioned to about 2-mm length rings, which were embedded in Matrigel. To induce angiogenesis, human recombinant bFGF (50 ng/ml) or bFGF plus the peptide (50 μM) was added in Matrigel. Gel (200 μl) containing an aortic ring was polymerized in 12-well plates (37° C. for 30 min) and then incubated with 1 ml of Medium 200 supplemented with 100 units/ml penicillin, and […] streptomycin and 2% FBS at 37 ° C. The cultures were propagated at 37 ° C. in a humidified incubator for up to 7 days. Sprouts were recorded using an inverted microscope platform (Leica DM16000B) with bright-field optics. Each ring was scored by three independent observers on a scale 0-4 depending on the degree of sprouting vessel being observed (0=no sprouting, 4=profuse sprouting). The experiment was repeated in triplicates.

[4] = tested on: STZ-induced diabetic mice; assay: Vascular abnormalities in the retina of diabetic mice; format: in vivo; conditions: for Fluorescence Intensity (Fold): leaked FITC-BSA in entire retina, vs vehicle
Protocol: Diabetic mice were generated by a single intraperitoneal injection of streptozotocin (STZ) (150 mg/kg body weight). STZ was freshly prepared in 0.1 M citrate buffer (pH 4.5). After injection, mice were supplied with 10% sucrose overnight to prevent sudden hypoglycemic shock. After 1 week, mice with non-fasting blood glucose levels >500 mg/dl were defined as diabetic and used for the experiments. DMSO Vehicle or the present synthetic peptide (10 mg/kg; n≥3 per peptide) were administered by intraperitoneal injections twice a day. After treatment for 24 h, mice were intraperitoneal injected with 100 mg/kg of BSA-FITC for further 30 min.
To determine vascular lesions (hemorrhaging areas) in retina, the animals were euthanized by CO2 inhalation, and the eyes were enucleated and fixed by 2% paraformaldehyde for 2 hr and flat-mounted onto glass slides to obtain optical sections by an epifluorescence microscopy. Vascular lesions in the retina was scored in all four retinal quadrants of flat mounts by using a 20× objective. Six microscopic fields were sampled in each quadrant in both the central and peripheral retina, and data were presented as the average number of lesions/retina.
Vascular FITC-BSA leakage was determined by a fluorescence spectrofluorometer based on standard curves of FITC-BSA at excitation and emission wavelengths of 488 and 535 nm, respectively, and then normalized to a non-injected control retina. For this analysis, retinas were dissected from treated and untreated diabetic mice after BSA-FITC injections, and each was solubilized in 300 μL ice-cold PBS.
Diabetic retinopathy is characterized by blood-retinal barrier (BRB) breakdown and neurotoxicity. To evaluate the possible beneficial effect of the present synthetic peptides on diabetic retinopathy, STZ-induced diabetic mice were intraperitoneally injected with 7-mer peptide, DMSO vehicle or the control peptide (SEQ ID NO: 22). The retinal vascular abnormality was then monitored by detecting the extravasation of BSA-fluorescein. Results are depicted in FIG. 11.

[5] = tested on: human uterine sarcoma cells (MES-SA/Dx5); assay: Tumorigenicity assay, xenografted human uterine sarcoma; format: in vivo, nude mice; conditions: 10 mg/kg intraperitoneal every 2 days
Protocol: MES-SA/Dx5 cells (5×10^6 cells in 0.1 ml) were implanted by subcutaneous injections in the right flank region of female nude mice (n=24, each animal weighted about 20 g before the assay began). The experiments were approved by the Mackay Memorial Hospital Review Board for animal investigation. Treatment was initiated in animals when the tumor volume was above 80 mm^3. Vehicle DMSO, the present synthetic peptide or the control peptide (10 mg/kg) was administered by intraperitoneal injections every 2 days. Tumor progression was monitored for 10 days; size of the tumor was measured every 3 to 5 days with a caliper and the volume was calculated using the following formula: ½×length×width^2.
To this purpose, human uterine sarcoma cells (MES-SA/Dx5) were implanted in nude mice to induce tumor formation, and when the volume of each tumor reached 80 mm^3, animals were then treated with vehicle alone, or the 7-mer peptide at the dose of 10 mg/kg, every 2 days for 10 days. Results are depicted in FIG. 9.

HUVECs [6] = assay: Apoptosis assay (annexin V-FITC); format: cell-based; conditions: HUVECs
Protocol: The percentage of apoptotic HUVEC cells was assayed using TACS annexin V-FITC kit. The percentage of annexin V-positive cells was determined using in situ staining according to the manufacturer's instruction. The cell number was determined by counterstaining with Hoechst 33342. The nuclei in ten randomly selected fields of the three different chambers (˜7200 cells) were counted. Specimens were examined and photographed on a Zeiss epifluorescence microscope (×100, 10 fields/sample). Pictures were recorded on Zeiss software.

Substance	dose dependence of inhibitory action on VEGF-induced cell proliferation (RPMI8226 cells; 1 to 25 μM, RPMI8226 cells)	Cell number (Fold) (HUVECs [1])	lesions caused by the laser burn [2]	Tube length (Fold) (HUVECs [3])	effect on number of colonies on the surface of the lung / in vivo metastasis (B16-F10 melanoma cells)	No. lung colonies (B16-F10 melanoma cells)	Inhibition (%) (B16-F10 melanoma cells)	level of sprouting microvessels around the aortic ring (rat aortic ring)	extravasation of FITC-BSA [4]	Fluorescence Intensity (Fold) [4] [Fold]	biological activity of the analogue relative to the 7-mer (summary statement of the description) (RPMI8226 cells; summary of Example 1 findings)	hemorrhage in the retinal parenchyma ([4]; intraperitoneal)	sizes of tumors [5]	induction of cell apoptosis (HUVECs [6])	effect on VEGF-induced proliferation of RPMI8226 cells (RPMI8226 cells; VEGF 50 ng/ml, 25 μM peptide, 24 hrs, MTT)
NH2-(D-Asp)-Leu-Tyr-Arg-Val-Arg-Ser-COOH (H-[dD]LYRVRS-OH) [7-mer DD]	dose dependent manner	0.90 ± 0.048	significantly ameliorated	1.33 ± 0.25	capable of reducing the number of colonies; also recorded: may suppress in vivo metastasis	40 ± 15.7	82.3	inhibited	may significantly prevent	0.38 ± 0.11	–	–	–	–	–
NH2-Asp-Leu-Tyr-Arg-Val-Arg-COOH (DLYRVR; not fully specified (N-terminus, C-terminus); printed as NH2-Asp-Leu-Tyr-Arg-Val-Arg-COOH) [Control Peptide, reference compound]	–	–	–	–	–	–	–	–	–	–	does not possess any biological function	several hemorrhaging areas	remained relatively unchanged	did not result in cell apoptosis	–
NH2-Asp-Leu-Tyr-Lys-Val-Pro-Ser-COOH (DLYKVPS; not fully specified (N-terminus, C-terminus); printed as NH2-Asp-Leu-Tyr-Lys-Val-Pro-Ser-COOH) [7-mer KP]	–	1.02 ± 0.075	–	1.62 ± 0.29	may suppress in vivo metastasis	69 ± 11.5	69.3	inhibited	may significantly prevent	0.37 ± 0.13	–	–	–	–	could sustain 7-mer bioactivity, only partly
